Experimental data published in patent US6894060B2, “Method for the treatment of dermal lesions caused by envenomation” (3M Innovative Properties Company, priority 2000, dated 2005).

Tested on: Loxosceles reclusa envenomation (spider bite dermal lesions)
Assay: Treatment of Loxosceles reclusa envenomation with imiquimod 5% cream (consecutive clinical cases)
Type: in vivo, human
Method: A consecutive series of 7 bites on 5 patients were treated with imiquimod 5% cream (available under the tradename ALDARA from 3M Pharmaceuticals, St. Paul, Minn., USA) applied by the clinic staff, three times per week (typically Monday, Wednesday and Friday) for two weeks. Sufficient cream was used to cover the area of erythema, rubbing the cream gently until it “vanished” as per labeled instructions. In addition, a single intramuscular dose of ceftriaxone 1 gm was given together with oral dicloxicillin, 500 mg bid for 10 days. Patients were re-examined by a physician at 7, 14 and 28 days following initiation of therapy.

Question: How did the “improvement in induration and erythema by day 7” value (7 bites in 5 patients) turn out when `CC(C)Cn1cnc2c(N)nc3ccccc3c21` [imiquimod, 1-(2-methylpropyl)-1H-imidazo[4,5-c]quinolin-4-amine] was run?
Answer: The value was “Marked improvement”.

Question: What about the “resolution of induration and erythema by day 14” value (7 bites in 5 patients) of the same molecule?
Answer: Its value is “full resolution in all but one case”.

Question: And the cases with necrosis (7 consecutive cases, versus historical rate 7/12 (0.583): binomial p=0.002, Chi-square p=0.01)?
Answer: The cases with necrosis was 0 out of 7.

Question: What about the “residual scarring or pigmentation changes” value (day 28 follow-up visit) of the same molecule?
Answer: The value was “No residual scarring or pigmentation changes”.

Question: What about the development of necrosis (imiquimod treated cases, 7 bites in 5 patients) of the same molecule?
Answer: The development of necrosis was “Necrosis did not develop in any”.

Question: What about the “erythema, 14 Day Follow-up” value (patient five, right calf bite) of the same molecule?
Answer: The value was “present”.

Question: What about the “ulcer status, 14 Day Follow-up” value (patient five, right calf bite) of the same molecule?
Answer: Its value is “Ulcer healed”.

Question: And the “erythema, 7 Day Follow-up” value (patient five, right calf bite, 1.2 cm erythema at presentation)?
Answer: Its value is “No erythema”.

Question: What about the “ulcer, 7 Day Follow-up” value (patient five, right calf bite, 1.8 cm central core at presentation) of the same molecule?
Answer: Its value is 0.75 cm ulcer.

Question: And the “erythema resolved by (day)” value (patient five, right calf bite, erythema present at day 14)?
Answer: The value was “d28)”.

Question: What about the “pain, 7 Day Follow-up” value (patient five, right calf bite, painful at presentation) of the same molecule?
Answer: Its value is “Decreased pain”.

Question: What about the “reappearance of erythema, presumed to be secondary to imiquimod” value (patient five, erythema cleared at the day 7 visit) of the same molecule?
Answer: Its value is “developed again by day 14”.

Question: What about the “lesion status, 14 Day Follow-up” value (patient four, right calf bite) of the same molecule?
Answer: The value was “Completely”.

Question: What about the “induration, 7 Day Follow-up” value (patient four, right calf bite, 1.5 cm induration at presentation, cream three times per week for two weeks) of the same molecule?
Answer: The value was 0.5 cm.

Question: What about the “erythema, 7 Day Follow-up” value (patient four, right calf bite, 9 cm erythema at presentation) of the same molecule?
Answer: Its value is “No erythema”.

Question: And the “pain or tenderness, 7 Day Follow-up” value (patient four, right calf bite, painful at presentation)?
Answer: Its value is “No pain or”.

Question: What about the “lesion status, 14 Day Follow-up” value (patient one, right calf bite) of the same molecule?
Answer: Its value is “Completely”.

Question: And the “firm induration, 7 Day Follow-up” value (patient one, right calf bite, 1.3 cm induration at presentation)?
Answer: Its value is 1.25 cm firm.

Question: What about the “induration (second entry of the cell), 7 Day Follow-up” value (patient one, right calf bite, 10 cm erythema at presentation) of the same molecule?
Answer: Its value is 5 cm.

Question: What about the “tenderness, 7 Day Follow-up” value (patient one, right calf bite, very painful at presentation) of the same molecule?
Answer: Its value is “Non-tender”.

Question: What about the “time from bite to resolution” value (patient three, first bite) of the same molecule?
Answer: Its value is 9 days.

Question: And the “lesion status, 7 Day Follow-up” value (patient three, left buttock bite, 1.0 cm induration, erythema, painful at presentation)?
Answer: Its value is “Completely”.

Question: And the “lesion status, 14 Day Follow-up” value (patient three, right thigh bite)?
Answer: The value was “Completely”.

Question: And the “central core, 7 Day Follow-up” value (patient three, right thigh bite, 1.5 cm induration at presentation)?
Answer: The value was 2.5 cm.

Question: What about the “erythema, 7 Day Follow-up” value (patient three, right thigh bite, 7.5 × 11 cm erythema at presentation) of the same molecule?
Answer: Its value is “No erythema”.

Question: And the “pain or tenderness, 7 Day Follow-up” value (patient three, right thigh bite, tender at presentation)?
Answer: The value was “No pain or”.

Question: And the “lesion status, 14 Day Follow-up” value (patient two, left thigh bite)?
Answer: The value was “Completely”.

Question: And the “central core, 7 Day Follow-up” value (patient two, left thigh bite, 1.0 cm central core at presentation)?
Answer: Its value is 0.5 cm.

Question: And the “erythema, 7 Day Follow-up” value (patient two, left thigh bite, 6.0 cm erythema at presentation)?
Answer: The value was 2.0 cm.

Question: What about the “lesion status, 14 Day Follow-up” value (patient two, right breast bite) of the same molecule?
Answer: Its value is “Completely”.

Question: What about the “central core, 7 Day Follow-up” value (patient two, right breast bite, 1.2 cm central core at presentation) of the same molecule?
Answer: The value was 1.0 cm.

Question: What about the “erythema, 7 Day Follow-up” value (patient two, right breast bite, 3.0 cm erythema at presentation) of the same molecule?
Answer: The value was “No erythema”.

Question: And the “time to pain relief following the first dose” value (reported by all patients, 7 bites in 5 patients)?
Answer: The value was 1 to 2 days.
